± gives the standard deviation of the averaged measurements.
What was measured:
Conditions in all cases: 72 h
U2OS [1] = assay: cell viability relative to DMSO; higher = less toxic
Calu-3 [2] = assay: as above
Caco-2 [3] = assay: as above
HepG2 [4] = assay: as above
Vero E6 [5] = assay: as above
U2OS [6] = assay: relative viability EC50 (midpoint between 100% and the lowest measured viability); higher = less toxic
Calu-3 [7] = assay: as above
HepG2 [8] = assay: as above
Vero E6 [9] = assay: as above
U2OS [10] = assay: drug sensitivity score (DSS) for viability; higher = more toxic; extreme values may be limits of the assay
Calu-3 [11] = assay: as above
Caco-2 [12] = assay: as above
HepG2 [13] = assay: as above
Vero E6 [14] = assay: as above
Caco-2 [15] = assay: relative viability EC50 (midpoint between 100% and the lowest measured viability); higher = less toxic

SMILES	cell viability (U2OS [1]; 1 nM) [%]	cell viability (U2OS [1]; 10 nM) [%]	cell viability (U2OS [1]; 100 nM) [%]	cell viability (U2OS [1]; 1000 nM) [%]	cell viability (U2OS [1]; 10000 nM) [%]	cell viability (Calu-3 [2]; 1 nM) [%]	cell viability (Calu-3 [2]; 10 nM) [%]	cell viability (Calu-3 [2]; 100 nM) [%]	cell viability (Calu-3 [2]; 1000 nM) [%]	cell viability (Calu-3 [2]; 10000 nM) [%]	cell viability (Caco-2 [3]; 1 nM) [%]	cell viability (Caco-2 [3]; 10 nM) [%]	cell viability (Caco-2 [3]; 100 nM) [%]	cell viability (Caco-2 [3]; 1000 nM) [%]	cell viability (Caco-2 [3]; 10000 nM) [%]	cell viability (HepG2 [4]; 1 nM) [%]	cell viability (HepG2 [4]; 10 nM) [%]	cell viability (HepG2 [4]; 100 nM) [%]	cell viability (HepG2 [4]; 1000 nM) [%]	cell viability (HepG2 [4]; 10000 nM) [%]	cell viability (Vero E6 [5]; 1 nM) [%]	cell viability (Vero E6 [5]; 10 nM) [%]	cell viability (Vero E6 [5]; 100 nM) [%]	cell viability (Vero E6 [5]; 1000 nM) [%]	cell viability (Vero E6 [5]; 10000 nM) [%]	relative viability EC50 (U2OS [6]) [µM]	relative viability EC50 (Calu-3 [7]) [µM]	relative viability EC50 (HepG2 [8]) [µM]	relative viability EC50 (Vero E6 [9]) [µM]	drug sensitivity score (U2OS [10])	drug sensitivity score (Calu-3 [11])	drug sensitivity score (Caco-2 [12])	drug sensitivity score (HepG2 [13])	drug sensitivity score (Vero E6 [14])	relative viability EC50 (Caco-2 [15]) [µM]
NCCCCN=C(N)N [agmatine]	103	96.3	100	100	99.2	94.8	95.7	93.2	89.4	99.9	114	82.8	92.5	82.5	72.2	95.5	96.6	99.4	110	94.7	103	97.6	97.4	104	88.6	> 10	> 10	> 10	> 10	0	0	3.4	0	0	–
CC(=O)Oc1ccc(C(c2ccc(OC(C)=O)cc2)c2ccccn2)cc1 [bisacodyl]	101	102	100	89.9	87.3	111	105	102	99.2	88.2	92.8	84.9	107	80.5	60.3	98.3	99.5	104	95.1	100	99.6	94.1	97.1	95.7	80.7	> 10	> 10	> 10	> 10	0.6	0.1	4.4	0	1	–
CO[C@@H](C(=O)N1Cc2[nH]nc(NC(=O)c3ccc(N4CCN(C)CC4)cc3)c2C1)c1ccccc1 [danusertib]	99.6	103	93.9	74.8	31	89	93.8	77.1	76.9	52.9	94.7	95.4	94.9	82.9	71.7	93.4	95.9	78.3	55.8	42.6	104	101	104	98.6	84.2	1.35	–	0.192	> 10	6.8	7.5	2.9	10.7	0.4	–
Cc1cc(C)cc(NC(=O)Cc2ccc(OC(C)(C)C(=O)O)cc2)c1 [efaproxiral]	97.7	95.7	98.9	93.5	94.3	98.6	103	104	101	105	–	–	–	–	–	107	107	104	101	96.4	98.5	97.5	101	101	98.2	> 10	> 10	> 10	> 10	0	0	–	0	0	–
N#Cc1nn(-c2c(Cl)cc(C(F)(F)F)cc2Cl)c(N)c1[S+]([O-])C(F)(F)F (stereo unspecified) [fipronil]	–	–	–	–	–	99.3	92	102	103	102	103	105	102	96.7	94.1	98.2	109	97.8	91.1	103	106	102	99.2	101	102	–	> 10	> 10	> 10	–	0	0	0	0	> 10
CCCCN(CCCC)CCC(O)c1cc2c(Cl)cc(Cl)cc2c2cc(C(F)(F)F)ccc12 (stereo unspecified) [halofantrine]	95.2	102	99.5	96.3	88	90.1	93.3	103	109	88.1	95	122	104	106	88.7	95.5	82.1	97.4	92.1	71.8	109	103	99.9	83.3	83.8	> 10	> 10	–	> 10	0.2	0	0	2.1	1.9	> 10
COc1ccc(-c2cc(=O)c3c(OC)c(OC)c(OC)c(OC)c3o2)cc1OC [nobiletin]	94.4	103	94	99.7	92.3	99.5	111	106	104	83.8	86.4	99.4	100	95.3	80.9	96.9	108	102	83.2	68.6	102	104	94.5	93.5	91.6	> 10	> 10	–	> 10	0	0.2	1.1	3.4	0	> 10
CCC[C@H](N[C@@H](C)C(=O)N1[C@H](C(=O)O)C[C@@H]2CCCC[C@@H]21)C(=O)OCC [perindopril]	–	–	–	–	–	97	86.8	93.1	90.1	102	107	99.9	94.4	101	99.5	99.1	105	95.8	97.2	92.4	99.4	105	98.1	97.3	98.8	–	> 10	> 10	> 10	–	0	0	0	0	> 10
Cc1ccc(=O)n(-c2ccccc2)c1 [pirfenidone]	–	–	–	–	–	103	95.3	107	103	109	99.3	93.6	102	99.7	100	91.7	100	106	98.8	104	107	104	105	103	100	–	> 10	> 10	> 10	–	0	0	0	0	> 10
CC(C)(C)C(=O)OCOC(=O)[C@@H]1N2C(=O)[C@@H](NC(=O)[C@H](N)c3ccccc3)[C@H]2SC1(C)C [pivampicillin]	98.4	94	101	93.3	97.6	110	108	97.7	98.4	117	–	–	–	–	–	114	97.7	91.9	82	96.9	103	104	101	99.4	102	> 10	> 10	> 10	> 10	0	0	–	0.2	0	–
O=[N+]([O-])c1cn2c(n1)OC[C@@H](OCc1ccc(OC(F)(F)F)cc1)C2 [pretomanid]	–	–	–	–	–	101	96.5	96.4	112	103	98.3	100	102	99.3	92.6	106	103	102	96.3	100	111	97.6	103	95.8	102	–	> 10	> 10	> 10	–	0	0	0	0	> 10
O=C(O)CCn1c2c(c3ccccc31)C[C@H](NS(=O)(=O)c1ccc(F)cc1)CC2 [ramatroban]	100	98.4	95.8	101	104	92.4	97.7	94.1	104	101	–	–	–	–	–	104	95.6	103	93.6	110	98	95.7	92.4	97.4	104	> 10	> 10	> 10	> 10	0	0	–	0	0	–
C[C@@]1(C(=O)O)NCCc2cc(O)c(O)cc21 [salsolinol-1-carboxylic-acid]	–	–	–	–	–	98.9	105	103	106	107	103	101	97.4	109	106	100	106	95	94.3	107	100	95.2	94.8	92.2	104	–	> 10	> 10	> 10	–	0	0	0	0	> 10
CC1=C(/C=C/C(C)=C/C=C/C(C)=C/C(=O)O)C(C)(C)CCC1 [tretinoin]	98.8 ± 0.28	95.3 ± 4	94.3 ± 2.3	95.6 ± 0.57	90.7 ± 0.85	106 ± 6.3	97.7 ± 1.7	106 ± 3.3	87.5 ± 2.5	85.4 ± 4.5	103 ± 8.2	102 ± 10	97.5 ± 1.4	101 ± 1.9	74.5 ± 18	99.8 ± 2.9	102 ± 7	109.5 ± 0.64	101 ± 3.5	103 ± 6.5	102 ± 5.2	101 ± 1.9	99.7 ± 3.3	98.3 ± 2.1	101 ± 1.9	> 10	> 10	> 10	> 10	0	1.2 ± 0.28	0.9 ± 1.1	0	0	–
C[C@]12CC[C@H]3[C@@H](CC[C@@]45O[C@@H]4C(O)=C(C#N)C[C@]35C)[C@@H]1CC[C@@H]2O [trilostane]	98.8	103	105	105	97.9	–	–	–	–	–	105	92.9	99.9	97.6	99.3	–	–	–	–	–	91.3	98.5	92.8	92.4	102	> 10	–	–	> 10	0	–	0	–	0	> 10
FC(F)(F)c1cccc(C2=CCN(CCc3ccc4ccccc4c3)CC2)c1 [xaliproden]	98.4	96.3	99.5	105	111	109	105	95.5	109	95.9	106	88.6	89	104	107	–	–	–	–	–	100	89.7	92.7	92.7	104	> 10	> 10	–	> 10	0	0	0	–	0	> 10

— the supplement of paper PMC13380429
